Data set [1] is described as follows: ASSAY (III) ThT fibrillation assay for physical stability. Type of data set: physicochemical. The essentials: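 Physical stability scored by ThT fluorescence (444 nm excitation, 485 nm emission) tracked every 20 min during 37 °C incubation with 960 rpm shaking, ThT at 1 μM final. Values are replicate means with SD at chosen times; HPLC against pramlintide standard gives initial and post-assay soluble concentrations.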

Data set [2] can be described thus: ASSAY (IV) determination of solubility. The class given is physicochemical. An outline of the steps:
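Solubility measured by UPLC of supernatant after centrifugation, following 18 h at room temperature. Peptide ([…] in water) was diluted 1:1 into 100 mM glycylglycine (pH 3.0, 4.0, 5.0) or bistrispropane (pH 6.0-8.0).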

The target of data set [3] is T1, rat amylin receptor (rat calcitonin receptor + rat RAMP 3) (Rattus norvegicus, UniProt P32214+Q9JJ73).
T1 construct: expressed in transfected cells; host or cells: BHK tk'ts 13 (transient, FuGENE 6), membranes
T1 sequence (P32214 25-479 isoform P32214-2 limits assumed): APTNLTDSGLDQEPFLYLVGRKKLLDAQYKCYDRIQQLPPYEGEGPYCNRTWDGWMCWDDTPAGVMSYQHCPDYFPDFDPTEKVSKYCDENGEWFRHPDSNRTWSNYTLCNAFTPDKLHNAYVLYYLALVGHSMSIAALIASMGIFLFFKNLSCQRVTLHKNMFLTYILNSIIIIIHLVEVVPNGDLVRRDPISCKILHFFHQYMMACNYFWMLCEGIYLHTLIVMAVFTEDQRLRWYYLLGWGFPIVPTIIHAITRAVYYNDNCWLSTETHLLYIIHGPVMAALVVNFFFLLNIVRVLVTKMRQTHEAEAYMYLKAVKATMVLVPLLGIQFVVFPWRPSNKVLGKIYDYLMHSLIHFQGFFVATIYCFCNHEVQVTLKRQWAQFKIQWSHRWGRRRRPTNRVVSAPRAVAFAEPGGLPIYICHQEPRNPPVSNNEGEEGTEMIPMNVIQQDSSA
T1 sequence (Q9JJ73 23-147 partner): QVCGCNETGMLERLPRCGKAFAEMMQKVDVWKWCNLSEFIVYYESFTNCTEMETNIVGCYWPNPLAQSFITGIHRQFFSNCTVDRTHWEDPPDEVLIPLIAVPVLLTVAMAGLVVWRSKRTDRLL
In words: ASSAY (VI) binding to the rat amylin receptor. The conditions noted are these: for IC50: binding to rat amylin receptor, read-out: rAmylin-R bind IC50. An outline of the steps:
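The cell-membrane assay assessed binding at the rat amylin receptor. BHK tk′ts 13 cells were transfected transiently with rat calcitonin receptor, with FuGENE® 6 (Roche) as the transfection reagent, used per the manufacturer's recommendations. Approximately 48 hours after transfection the cells were harvested, and membranes were prepared for measuring binding.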

The mark [4] stands for this setting: bistrispropane buffer, pH 6.5, read-out: Solubility pH 6.5 Concentration.
Setting [5] is: bistrispropane buffer, pH 7.5, read-out: Solubility pH 7.5 Concentration.
[6] abbreviates: bistrispropane buffer, pH 6.0, read-out: Solubility pH 6.0 Concentration.
Setting [7] is: bistrispropane buffer, pH 7.0, read-out: Solubility pH 7.0 Concentration.
[8] abbreviates: bistrispropane buffer, pH 8.0, read-out: Solubility pH 8.0 Concentration.
Where [9] appears, read: glycylglycine buffer, pH 3.0, read-out: Solubility pH 3.0 Concentration.
Setting [10] is: glycylglycine buffer, pH 4.0, read-out: Solubility pH 4.0 Concentration.
Setting [11] is: glycylglycine buffer, pH 5.0, read-out: Solubility pH 5.0 Concentration.
The mark [12] stands for this setting: Table 7, rat binding selectivity, rCTR IC50 / rAmylin-R IC50.
Where [13] appears, read: Table 7a (preferred compounds), rat binding selectivity, rCTR IC50 / rAmylin-R IC50.
Where [14] appears, read: ratio of rCTR bind IC50 to rAmylin-R bind IC50.

In general, IC50 refers to the concentration at which inhibition is half-maximal.

Converted amounts (≈) assume the structure as drawn. Like-named read-outs stand apart in the source and are kept apart here. Numbered stars: 1 amine (or outer) side, 2 acyl side, 3 side chain; on linkers, the order of the positions; unused ones are H or OH. Bridge positions count the residues as written; N and C are the ends. Side chains are listed from the residue outwards. Peptide text beside a SMILES is read from it. * marks the point of attachment. C20 diacid = O=C(O)CCCCCCCCCCCCCCCCCCC(=O)*; γGlu = O=C(O)[C@H](CCC(=O)[*:2])N[*:1]; AEEA = NCCOCCOCC(=O)O

Take `CC[C@H](C)[C@H](NC(=O)[C@H](C)NC(=O)CNC(=O)[C@H](Cc1ccccc1)NC(=O)[C@H](CC(N)=O)NC(=O)[C@@H]1CCCN1C(=O)[C@H](CO)NC(=O)[C@H](CO)NC(=O)[C@H](Cc1c[nH]cn1)NC(=O)[C@H](CCCNC(=N)N)NC(=O)[C@H](CC(C)C)NC(=O)[C@H](Cc1ccccc1)NC(=O)[C@H](CCCNC(=N)N)NC(=O)[C@H](C)NC(=O)[C@H](CC(C)C)NC(=O)[C@H](CCCNC(=N)N)NC(=O)[C@H](CCC(N)=O)NC(=O)[C@@H](NC(=O)[C@H](C)NC(=O)[C@@H]1CSSC[C@H](NC(=O)[C@@H](N)CCCCNC(=O)COCCOCCNC(=O)CC[C@H](NC(=O)CCCCCCCCCCCCCCCCCCC(=O)O)C(=O)O)C(=O)N[C@@H](CC(N)=O)C(=O)N[C@@H]([C@@H](C)O)C(=O)N[C@@H](C)C(=O)N[C@@H]([C@@H](C)O)C(=O)N1)[C@@H](C)O)C(=O)N1CCC[C@H]1C(=O)N[C@@H](CO)C(=O)N[C@@H](CO)C(=O)N[C@H](C(=O)N1CCC[C@H]1C(=O)N[C@H](C(=O)NCC(=O)N[C@@H](CO)C(=O)N[C@@H](CC(N)=O)C(=O)N[C@H](C(=O)N[C@@H](Cc1ccc(O)cc1)C(N)=O)[C@@H](C)O)C(C)C)[C@@H](C)O` [Example 64] (H-K([AEEA-γGlu-C20 diacid])CNTATCATQRLARFLRHSSPNFGAIPSSTPVGSNTY-NH2; disulfide 2-7; N-terminus assumed): in data set [1], the “ThT pH 4.0 lag time (h)” value stood at 45 h. The solubility at 18 h in data set [2] (setting [4]), in data set [2] (setting [5]), in data set [2] (setting [6]), in data set [2] (setting [7]), in data set [2] (setting [8]) and in data set [2] (setting [9]) was at least 200 µM in each case. The solubility at 18 h in data set [2] (setting [10]) and in data set [2] (setting [11]) was at least 200 µM throughout. The IC50 in data set [3] (Table 7) amounted to 1.97 nM. The “Ratio rCT/rAmylin binding” value in data set [3] (setting [12]), in data set [3] (setting [13]) and in data set [3] (setting [14]) was 64.7 in each case.

Consider `CC[C@H](C)[C@H](NC(=O)[C@H](C)NC(=O)CNC(=O)[C@H](Cc1ccccc1)NC(=O)[C@H](CC(N)=O)NC(=O)[C@@H]1CCCN1C(=O)[C@H](CO)NC(=O)[C@H](CO)NC(=O)[C@H](Cc1c[nH]cn1)NC(=O)[C@H](CCCNC(=N)N)NC(=O)[C@H](CC(C)C)NC(=O)[C@H](Cc1ccccc1)NC(=O)[C@H](CCCNC(=N)N)NC(=O)[C@H](C)NC(=O)[C@H](CC(C)C)NC(=O)[C@H](CCCNC(=N)N)NC(=O)[C@H](CCC(N)=O)NC(=O)[C@@H](NC(=O)[C@H](C)NC(=O)[C@@H]1CSSC[C@H](NC(=O)[C@@H](N)CCCCNC(=O)CC[C@H](NC(=O)CCCCCCCCCCCCCCCCCCC(=O)O)C(=O)O)C(=O)N[C@@H](CC(N)=O)C(=O)N[C@@H]([C@@H](C)O)C(=O)N[C@@H](C)C(=O)N[C@@H]([C@@H](C)O)C(=O)N1)[C@@H](C)O)C(=O)N1CCC[C@H]1C(=O)N[C@@H](CO)C(=O)N[C@@H](CO)C(=O)N[C@H](C(=O)N[C@@H](CC(N)=O)C(=O)N[C@H](C(=O)NCC(=O)N1CCC[C@H]1C(=O)N[C@@H](CC(N)=O)C(=O)N[C@H](C(=O)N[C@@H](Cc1ccc(O)cc1)C(N)=O)[C@@H](C)O)C(C)C)[C@@H](C)O` [Example 65] (H-K([γGlu-C20 diacid])CNTATCATQRLARFLRHSSPNFGAIPSSTNVGPNTY-NH2; disulfide 2-7 (inferred); N-terminus assumed), for which the “ThT pH 4.0 lag time (h)” value in data set [1] was determined as 45 h. The solubility at 18 h in data set [2] (setting [4]), in data set [2] (setting [5]), in data set [2] (setting [6]), in data set [2] (setting [7]), in data set [2] (setting [8]) and in data set [2] (setting [9]) was at least 200 µM in each case. Besides, the solubility at 18 h in data set [2] (setting [10]) and in data set [2] (setting [11]) was at least 200 µM each time. Moreover, the IC50 in data set [3] (Table 7) is 1.16 nM. Moreover, the “Ratio rCT/rAmylin binding” value in data set [3] (setting [12]), in data set [3] (setting [13]) and in data set [3] (setting [14]) was 93.2 each time.

As to `CC[C@H](C)[C@H](NC(=O)[C@H](C)NC(=O)CNC(=O)[C@H](Cc1ccccc1)NC(=O)[C@H](CC(N)=O)NC(=O)[C@@H]1CCCN1C(=O)[C@H](CO)NC(=O)[C@H](CO)NC(=O)[C@H](Cc1c[nH]cn1)NC(=O)[C@H](CCCNC(=N)N)NC(=O)[C@H](CC(C)C)NC(=O)[C@H](Cc1ccccc1)NC(=O)[C@H](Cc1c[nH]cn1)NC(=O)[C@H](C)NC(=O)[C@H](CC(C)C)NC(=O)[C@H](CCCNC(=N)N)NC(=O)[C@H](CCC(N)=O)NC(=O)[C@@H](NC(=O)[C@H](C)NC(=O)[C@@H]1CSSC[C@H](NC(=O)[C@@H](N)CCCCNC(=O)CC[C@H](NC(=O)CCCCCCCCCCCCCCCCCCC(=O)O)C(=O)O)C(=O)N[C@@H](CC(N)=O)C(=O)N[C@@H]([C@@H](C)O)C(=O)N[C@@H](C)C(=O)N[C@@H]([C@@H](C)O)C(=O)N1)[C@@H](C)O)C(=O)N1CCC[C@H]1C(=O)N[C@@H](CO)C(=O)N[C@@H](CO)C(=O)N[C@H](C(=O)N[C@@H](CC(N)=O)C(=O)N[C@H](C(=O)NCC(=O)N1CCC[C@H]1C(=O)N[C@@H](CC(N)=O)C(=O)N[C@H](C(=O)N[C@@H](Cc1ccc(O)cc1)C(N)=O)[C@@H](C)O)C(C)C)[C@@H](C)O` [Example 67] (H-K([γGlu-C20 diacid])CNTATCATQRLAHFLRHSSPNFGAIPSSTNVGPNTY-NH2; disulfide 2-7 (inferred); N-terminus assumed), the “ThT pH 4.0 lag time (h)” value in data set [1] was 26 h. Also, the solubility at 18 h is at least 200 µM in data set [2] (setting [4]); at least 200 µM in data set [2] (setting [5]); at least 200 µM in data set [2] (setting [6]); at least 200 µM in data set [2] (setting [7]); 178 µM (≈ 786 µg/mL) in data set [2] (setting [8]); at least 200 µM in data set [2] (setting [9]). For the same compound, the solubility at 18 h in data set [2] (setting [10]) and in data set [2] (setting [11]) was at least 200 µM in each case. Also, the IC50 in data set [3] (Table 7) turned out to be 0.172 nM. The “Ratio rCT/rAmylin binding” value in data set [3] (setting [12]), in data set [3] (setting [13]) and in data set [3] (setting [14]) was 85.4 in each case.

Regarding `CC[C@H](C)[C@H](NC(=O)[C@H](C)NC(=O)CNC(=O)[C@H](Cc1ccccc1)NC(=O)[C@H](CC(N)=O)NC(=O)[C@@H]1CCCN1C(=O)[C@H](CO)NC(=O)[C@H](CO)NC(=O)[C@H](Cc1c[nH]cn1)NC(=O)[C@H](CCCNC(=N)N)NC(=O)[C@H](CC(C)C)NC(=O)[C@H](Cc1ccccc1)NC(=O)[C@H](Cc1c[nH]cn1)NC(=O)[C@H](C)NC(=O)[C@H](CC(C)C)NC(=O)[C@H](CCCNC(=N)N)NC(=O)[C@H](CCC(N)=O)NC(=O)[C@@H](NC(=O)[C@H](C)NC(=O)[C@@H]1CSSC[C@H](NC(=O)[C@@H](N)CCCCNC(=O)COCCOCCNC(=O)CC[C@H](NC(=O)CCCCCCCCCCCCCCCCCCC(=O)O)C(=O)O)C(=O)N[C@@H](CC(N)=O)C(=O)N[C@@H]([C@@H](C)O)C(=O)N[C@@H](C)C(=O)N[C@@H]([C@@H](C)O)C(=O)N1)[C@@H](C)O)C(=O)N1CCC[C@H]1C(=O)N[C@@H](CO)C(=O)N[C@@H](CO)C(=O)N[C@H](C(=O)N[C@@H](CC(N)=O)C(=O)N[C@H](C(=O)NCC(=O)N1CCC[C@H]1C(=O)N[C@@H](CC(N)=O)C(=O)N[C@H](C(=O)N[C@@H](Cc1ccc(O)cc1)C(N)=O)[C@@H](C)O)C(C)C)[C@@H](C)O` [Example 68] (H-K([AEEA-γGlu-C20 diacid])CNTATCATQRLAHFLRHSSPNFGAIPSSTNVGPNTY-NH2; disulfide 2-7), the “ThT pH 4.0 lag time (h)” value in data set [1] is 24 h. The solubility at 18 h in data set [2] (setting [4]) is at least 200 µM; in data set [2] (setting [5]) it was 193 µM (≈ 880 µg/mL); in data set [2] (setting [6]), at least 200 µM; in data set [2] (setting [7]) it was at least 200 µM; in data set [2] (setting [8]), 138 µM (≈ 631 µg/mL); in data set [2] (setting [9]), at least 200 µM. The solubility at 18 h in data set [2] (setting [10]) and in data set [2] (setting [11]) was at least 200 µM each time. In addition, the IC50 in data set [3] (Table 7) came to 0.234 nM. Also, the “Ratio rCT/rAmylin binding” value in data set [3] (setting [12]), in data set [3] (setting [13]) and in data set [3] (setting [14]) was 121.9 throughout.

(Values after patent US9023789B2, “Amylin analogs and pharmaceutical compositions thereof” (Novo Nordisk A/S, priority 2012, dated 2015).)
